Here are results for two compounds from ChEMBL document CHEMBL5257089, “Gamabufotalin Induces Apoptosis and Cytoprotective Autophagy through the mTOR Signaling Pathway in Hepatocellular Carcinoma” (J Nat Prod, 2023).

The subject of data set [1] is Huh-7. In words: Induction of apoptosis in human Huh-7 cells assessed as late apoptotic cells at 10 nM incubated for 48 hrs by Annexin V-FITC/PI staining based flow cytometry method (reference value: 4.7%). In kind it is functional. (In general: In flow cytometry, cells or beads pass a laser one at a time.)
The test system of data set [2] is Hep 3B2. The data set is described as follows: Induction of autophagic flux in human Hep3B cells assessed as rescue of LC3-I accumulation at 10 uM incubated for 48 hrs in presence of gamabufotalin by Western blot analysis. In kind it is functional, cell-based. On the technique in general: Immunoblotting shows a protein as a band on a membrane.
Data set [3] relates to Huh-7. In words: Induction of autophagic flux in human Huh-7 cells harbouring mCherry-egfp-LC3 assessed as reduction in number of red puncta ratio at 10 nM incubated for 15 mins in presence of gamabufotalin by laser scanning confocal microscopic analysis. In kind it is functional, cell-based.
The test system of data set [4] is Hep 3B2. The data set is described as follows: Induction of apoptosis in human Hep3B cells assessed as early apoptotic cells at 10 nM incubated for 48 hrs in presence of gamabufotalin by Annexin V-FITC/PI staining based flow cytometry method (reference value: 1.3%). In kind it is functional.
Data set [5] deals with Hep 3B2. The data set is described as follows: Induction of apoptosis in human Hep3B cells assessed as necrotic cells at 10 nM incubated for 48 hrs by Annexin V-FITC/PI staining based flow cytometry method (reference value: 1.2%). In kind it is functional.
Data set [6] concerns Huh-7. The data set is described as follows: Induction of autophagic flux in human Huh-7 cells harbouring mCherry-egfp-LC3 assessed as increase in yellow puncta ratio at 10 nM by fluorescence imaging based assay. In kind it is functional, cell-based.
The subject of data set [7] is Hep 3B2. In words: Induction of autophagic flux in human Hep3B cells assessed as rescue of p62 at 10 uM incubated for 48 hrs in presence of gamabufotalin by Western blot analysis. In kind it is functional, cell-based.
In data set [8] the test system is Hep 3B2. The data set is described as follows: Inhibition of colony formation in human Hep3B cells at upto 25 uM incubated for 48 hrs by crystal violet staining based analysis. In kind it is functional, cell-based.
Data set [9] relates to Hep 3B2. The data set is described as follows: Induction of apoptosis in human Hep3B cells assessed as reduction in bcl-2 level […] incubated for 48 hrs in presence of 4,6-dimorpholino-N-(4-nitrophenyl)-1,3,5-triazin-2-amine by immunoblot analysis. In kind it is functional, cell-based.
Data set [10] relates to Hep 3B2. In words: Induction of apoptosis in human Hep3B cells assessed as reduction in Bcl-2 level at 25 nM incubated for 48 hrs in presence of chloroquine by immunoblot analysis. In kind it is functional, cell-based.
Data set [11] has as its system Hep 3B2. The data set is described as follows: Induction of apoptosis in human Hep3B cells assessed as late apoptotic cells at 25 nM measured after 48 hrs by annexin V-FITC/Propidium iodide staining based flow cytometric analysis (reference value: 2.4%). In kind it is functional.
The subject of data set [12] is Huh-7. The data set is described as follows: Induction of autophagy in human Huh-7 cells harbouring mCherry-egfp-LC3 assessed as reduction in red puncta ratio at 25 nM incubated for 15 mins in presence of 4,6-dimorpholino-N-(4-nitrophenyl)-1,3,5-triazin-2-amine by laser scanning confocal microscopic analysis. In kind it is functional, cell-based.
Data set [13] concerns Huh-7. In words: Induction of apoptosis in human Huh-7 cells assessed as late apoptotic cells at 25 nM measured after 48 hrs by annexin V-FITC/Propidium iodide staining based flow cytometric analysis (reference value: 6.1%). In kind it is functional.
Data set [14] relates to Hep 3B2. In words: Induction of apoptosis in human Hep3B cells assessed as upregulation of bax level […] incubated for 48 hrs in presence of 4,6-dimorpholino-N-(4-nitrophenyl)-1,3,5-triazin-2-amine by immunoblot analysis. In kind it is functional, cell-based.
The nature of data set [15]: Toxicity in mouse assessed as effect on heart at 5 mg/kg,ip administered every second day for 3 weeks by H and E staining based microscopic method. In kind it is organism-based. As to conditions: in vivo, 504 h.
For data set [16], the system named is Huh-7. In words: Induction of autophagy in human Huh-7 cells assessed as restoration of mTOR phosphorylation expression at 25 uM incubated for 48 hrs in presence of 4,6-dimorpholino-N-(4-nitrophenyl)-1,3,5-triazin-2-amine by immunoblot analysis. In kind it is functional, cell-based.
Data set [17] relates to Hep 3B2. The data set is described as follows: Induction of apoptosis in human Hep3B cells assessed as late apoptotic cells at 15 nM incubated for 48 hrs by Annexin V-FITC/PI staining based flow cytometry method (reference value: 2.6%). In kind it is functional.
The subject of data set [18] is Huh-7. The data set is described as follows: Induction of apoptosis in human Huh-7 cells assessed as increase in caspase-3 expression at upto 25 nM incubated for 48 hrs by Western blot analysis. In kind it is functional, cell-based.
Data set [19] relates to Hep 3B2. In words: Antitumor activity against human Hep3B cells xenografted in nude mouse model assessed as downregulation of P62 expression at 5 mg/kg,ip administered every second day for 3 weeks by Western blot analysis. In kind it is functional, organism-based. (In general: Xenograft models place foreign cells or tissue in a host animal.)
Data set [20] relates to Huh-7. In words: Induction of autophagic flux in human Huh-7 cells assessed as increase in intracellular vesicles at 25 nM incubated for 48 hrs by transmission electron microscopic analysis. In kind it is functional, cell-based.
The subject of data set [21] is Huh-7. In words: Induction of apoptosis in human Huh-7 cells assessed as early apoptotic cells at 25 nM incubated for 48 hrs in presence of 4,6-dimorpholino-N-(4-nitrophenyl)-1,3,5-triazin-2-amine by Annexin V-FITC/PI staining based flow cytometry method (reference value: 4.3%). In kind it is functional.
The test system of data set [22] is Hep 3B2. The data set is described as follows: Induction of apoptosis in human Hep3B cells assessed as increase in cleaved PARP expression at upto 25 nM incubated for 48 hrs by Western blot analysis. In kind it is functional, cell-based.
Data set [23] relates to Hep 3B2. The data set is described as follows: Induction of apoptosis in human Hep3B cells assessed as early apoptotic cells at 25 nM incubated for 48 hrs in presence of chloroquine by Annexin V-FITC/PI staining based flow cytometry method (reference value: 1.3%). In kind it is functional.
Data set [24] deals with Huh-7. The data set is described as follows: Induction of autophagic flux in human Huh-7 cells assessed as rescue of p62 at 25 uM incubated for 48 hrs in presence of chloroquine by Western blot analysis. In kind it is functional, cell-based.
Data set [25] deals with Huh-7. In words: Induction of apoptosis in human Huh-7 cells assessed as early apoptotic cells at 20 nM incubated for 48 hrs by Annexin V-FITC/PI staining based flow cytometry method (reference value: 1.7%). In kind it is functional.
Data set [26] concerns Hep 3B2. The data set is described as follows: Induction of apoptosis in human Hep3B cells assessed as increase in cleaved caspase-3 level at 25 nM incubated for 48 hrs in presence of chloroquine by immunoblot analysis. In kind it is functional, cell-based.
Data set [27] deals with Huh-7. In words: Induction of apoptosis in human Huh-7 cells assessed as increase in cleaved bax level at 25 nM incubated for 48 hrs in presence of chloroquine by immunoblot analysis. In kind it is functional, cell-based.
The subject of data set [28] is Hep 3B2. In words: Induction of apoptosis in human Hep3B cells assessed as upregulation of caspase-3 level […] incubated for 48 hrs in presence of 4,6-dimorpholino-N-(4-nitrophenyl)-1,3,5-triazin-2-amine by immunoblot analysis. In kind it is functional, cell-based.
Data set [29] relates to Huh-7. In words: Induction of autophagy in human Huh-7 cells assessed as reduction in ULK1 phosphorylation level incubated for 48 hrs by immunoblot method. In kind it is functional, cell-based. The note with it: dose 0-25 nM.
In data set [30] the test system is Hep 3B2. The data set is described as follows: Induction of autophagy in human Hep3B cells assessed as restoration of ULK1 phosphorylation expression at 25 uM incubated for 48 hrs in presence of 4,6-dimorpholino-N-(4-nitrophenyl)-1,3,5-triazin-2-amine by immunoblot analysis. In kind it is functional, cell-based.
For data set [31], the system named is Huh-7. The data set is described as follows: Induction of apoptosis in human Huh-7 cells assessed as viable cells at 25 nM incubated for 48 hrs by Annexin V-FITC/PI staining based flow cytometry method (reference value: 91.5%). The note with it: read-out: Activity. In kind it is functional.
The test system of data set [32] is Huh-7. The data set is described as follows: Induction of apoptosis in human Huh-7 cells assessed as necrotic cells at 25 nM measured after 48 hrs by annexin V-FITC/Propidium iodide staining based flow cytometric analysis (reference value: 0.0%). In kind it is functional.
The subject of data set [33] is Huh-7. The data set is described as follows: Induction of autophagic flux in human Huh-7 cells assessed as rescue of LC3-I accumulation at 25 uM incubated for 48 hrs in presence of chloroquine by Western blot analysis. In kind it is functional, cell-based.

The source made the active and inactive calls. The calls are words filed in the database; no cut-off is given here.

On to `CCN(CC)CCCC(C)Nc1ccnc2cc(Cl)ccc12` (stereo not drawn) [CHLOROQUINE], for which the Activity in the data set with Huh-7 [1] was 4.9%; in the data set on Hep 3B2 [4], 17.9%; in the data set on Hep 3B2 [5] it was 0.4%. The result in the data set on Hep 3B2 [2], in the data set on Huh-7 [3], with Huh-7 [6] and in the data set on Hep 3B2 [7] was Active.

As for `C[C@]12CC[C@H](O)C[C@H]1CC[C@@H]1[C@@H]2[C@H](O)C[C@]2(C)[C@@H](c3ccc(=O)oc3)CC[C@]12O` [GAMABUFOTALIN], the inhibition entry in the data set on Hep 3B2 [8] is “Active”. The result with Hep 3B2 [9], in the data set with Hep 3B2 [10], with Huh-7 [12], with Hep 3B2 [14], in the data set on Huh-7 [16] and in the data set on Huh-7 [18] was Active. Also, the outcome with Hep 3B2 [19], in the data set with Huh-7 [20], in the data set with Hep 3B2 [22], with Huh-7 [24], with Hep 3B2 [26] and with Huh-7 [27] was Active. For the same compound, the outcome in the data set with Hep 3B2 [28], with Hep 3B2 [30] and with Huh-7 [33] was Active. Besides, the Activity in the data set with Hep 3B2 [11] is reported as 13.2%; in the data set with Huh-7 [13], 20.3%; in data set [15], “Non-Toxic”; in the data set with Hep 3B2 [17], 4.5%; with Huh-7 [21] it was 14.9%; with Hep 3B2 [23], 17.9%. Moreover, the Activity in the data set on Huh-7 [25] is 5.5%; in the data set on Huh-7 [29], “Dose-Dependent Effect”; in the data set on Huh-7 [32] it was 1.2%. Also, the viability at 0.025 µM with Huh-7 [31] turned out to be 80%.
